Laboratory results as given in US20080312184A1 (priority 2005, published 2008).

What was measured:
[1] = system: brown patch pathogen; test: Control Test on Brown Patch of Turf Grass; type: in vivo, grass (cultivar: Pentocross); settings: Table 6, single active ingredient, soaked into soil, kept for 20 days
Description: Then, the area ratio of brown patch pathogen-attacked portion to the whole surface of the pot was examined according to the same index as in Test Example 1.

[2] = system: alternaria leaf spot pathogen of apples; test: Control Test on Alternaria Leaf Spot of Apples; type: in vivo, apples (cultivar: ourin); settings: Table 5, single active ingredient, examined after 20 days
Description: After a liquid chemical was dried, 10 trees attacked by alternaria leaf spot pathogen of apples which were previously arranged to be diseased were placed on the windward side and apples of test pots placed on the leeward side by wind of an air conditioner were wind-inoculated.

CC1=C(C(=O)Nc2ccccc2)S(=O)(=O)CCO1 [Oxycarboxin, oxycarboxin]
Control Value ([1]; treated concentration 20 ppm): 42

Clc1ccc(CSC(Cn2cncn2)=Nc2ccc(Cl)cc2Cl)cc1 [Imibenconazole, imibenconazole]
Control Value ([2]; treated concentration 10 ppm): 42

CC(C)CC(C)c1sccc1NC(=O)c1cn(C)nc1C(F)(F)F (racemic) [P (penthiopyrad), (RS)—N-[2-(1,3-dimethylbutyl)thiophen-3-yl]-1-methyl-3-tri fluoromethyl-1H-pyrazole-4-carboxamide]
Control Value ([2]; treated concentration 10 ppm): 50
Control Value ([1]; treated concentration 10 ppm): 53

O=C1C(Cl)=C(Cl)C(=O)N1c1ccc(F)cc1 [Fluoroimide, fluoroimide]
Control Value ([2]; treated concentration 30 ppm): 45

CCCCCCCCCCCCNC(=N)N [Dodine, dodine]
Control Value ([2]; treated concentration 50 ppm): 44

C[Si](C)(C)CC(O)(Cn1cncn1)c1ccc(F)cc1 (centres unmarked) [Simeconazole, simeconazole]
Control Value ([1]; treated concentration 10 ppm): 48

CC1(C)COC(C)(CCCc2ccc(Cl)cc2)N1C(=O)n1ccnc1.CC1(C)COC(C)(CCCc2ccc(Cl)cc2)N1C(=O)n1ccnc1.O=C(O)/C=C/C(=O)O (centres unmarked) [Oxpoconazole fumarate, oxpoconazole fumarate]
Control Value ([2]; treated concentration 10 ppm): 46
